Measured values as given in BigSolDB 2.1.

Cc1[nH]c(=O)c(C#N)cc1-c1ccncc1
solubility (mole fraction)
Conditions | 278.15 K | 283.15 K | 288.15 K | 293.15 K | 298.15 K | 303.15 K | 308.15 K | 313.15 K | 318.15 K | 323.15 K
in DMF | 7.95e-05 | 9.2e-05 | 0.000109 | 0.000129 | 0.000149 | 0.000173 | 0.000199 | 0.000225 | 0.000251 | 0.000285
in ethanol | 9.24e-06 | 1.13e-05 | 1.35e-05 | 1.58e-05 | 1.84e-05 | 2.13e-05 | 2.43e-05 | 2.74e-05 | 3.1e-05 | 3.5e-05
in ethylene glycol | 1.72e-05 | 2.09e-05 | 2.46e-05 | 2.89e-05 | 3.37e-05 | 3.89e-05 | 4.4e-05 | 5.03e-05 | 5.66e-05 | 6.44e-05
in isopropanol | 2.44e-05 | 2.89e-05 | 3.43e-05 | 4.03e-05 | 4.73e-05 | 5.4e-05 | 6.16e-05 | 7.07e-05 | 7.92e-05 | 9.02e-05
in water | 4.99e-07 | 5.98e-07 | 7.1e-07 | 8.34e-07 | 9.77e-07 | 1.12e-06 | 1.27e-06 | 1.44e-06 | 1.64e-06 | 1.85e-06
